Where two headings read alike, the source gives them in different places.

Data set [1] relates to PRRSV (NA type, VR-2332 strain). Nature of the data set: PRRSV infection inhibition in Marc-145 cells (immunofluorescence staining). To be noted: for SI (selectivity index), PRRSV: CC50/IC50; for IC50: Porcine reproductive and respiratory syndrome virus, MARC145, 72 h, Marc-145 cells, 100 TCID50/ml PRRSV, three days after treatment, read-out: PRRSV infection inhibition concentration IC50. It is filed as cell-based, Porcine Reproductive and Respiratory Syndrome virus.

For data set [2], the system named is PEDV (G1a type, SM98 strain). Nature of the data set: PEDV infection inhibition in Vero cells (PEDV detection kit on isolated RNA). It is filed as cell-based, Porcine Epidemic Diarrhea virus. The conditions noted are these: for SI (selectivity index), PEDV: CC50/IC50; for IC50: Porcine epidemic diarrhea virus, 48 h, Vero cells, 200 TCID50/ml PEDV, after 2 days, read-out: PEDV infection inhibition concentration IC50. The procedure:
The next day, PEDV (G1a type, SM98 strain) of 200 TCID50/ml and inosine, xanthosine and guanosine in the dialdehyde and acyclic diol forms were treated to the cells simultaneously, and after 2 days, using commercialized Viral gene (DNA/RNA) extraction kit (iNtRON, 101410754), RNA was isolated. For the isolated RNA, using commercialized PEDV detection kit (Mediandiagnostics, NS-PED-31), the antiviral efficacy of the materials was verified.

In another data set the test system is PCV2. Nature of the data set: PCV2 infection inhibition in PK15 cells (qPCR). It is filed as cell-based, Porcine Circovirus Type 2. To be noted: for SI (selectivity index), PCV2: CC50/IC50; for IC50: Porcine circovirus 2, PK-15, 96 h, PK15 cells, 200 TCID50/well PCV2, after 4 days, read-out: PCV2 infection inhibition concentration IC50. The procedure:
For the isolated DNA, using PCV2-specific primers (F-[…] , R-[…] ) and realtime RT-qPCR experimental method (95° C., 30 seconds 1 cycle, 95° C., 20 seconds, 56° C., 60 seconds 40 cycles), the antiviral efficacy of the materials was verified.
A general note: Real-time PCR tracks product formation cycle by cycle.

In a further data set the test system is PRV. Nature of the data set: microbe, parasite or virus in culture. It is filed as cell-based, Porcine Rotavirus. To be noted: for SI (selectivity index), PRV: CC50/IC50; for IC50: Rotavirus C, Vero, 72 h, read-out: PRV infection inhibition concentration IC50.
Data set [3] concerns Swine Influenza virus (SIV). Nature of the data set: organism not typed. The data set is classed as cell-based. To be noted: for SI (selectivity index), SIV: CC50/IC50; for IC50: MDCK, 96 h, read-out: SIV infection inhibition concentration IC50.
A further data set deals with IBV. Nature of the data set: microbe, parasite or virus in culture. The data set is classed as cell-based, Avian Infectious Bronchitis virus. To be noted: for IC50: read-out: IBV infection inhibition concentration IC50; for SI (selectivity index), IBV: CC50/IC50.
The test system of another data set is NDV. Nature of the data set: microbe, parasite or virus in culture. It is filed as cell-based, Avian Newcastle Disease virus. To be noted: for SI (selectivity index), NDV: CC50/IC50; for IC50: read-out: NDV infection inhibition concentration IC50.
A further data set deals with BVDV. Nature of the data set: BVDV infection inhibition in MDBK cells (RT-qPCR). It is filed as cell-based, Bovine Viral Diarrhea virus. The procedure: The next day, BVDV of 200 TCID50/well and inosine, xanthosine and guanosine in the dialdehyde and acyclic diol forms were treated to the cells simultaneously, and after 4 days, using commercialized Viral gene (DNA/RNA) extraction kit (iNtRON, 101410754), RNA was isolated.
For the isolated RNA, using BVDV-specific primers (F-[…] , R-[…] ) and realtime RT-qPCR experimental method (94° C., 10 minutes 1 cycle, 94° C., 10 seconds, 53° C., 20 seconds, 72° C., 30 seconds 35 cycles), the antiviral efficacy of the materials was verified.

The test system of the next data set is BRV. Nature of the data set: BRV infection inhibition in MDBK cells (RT-qPCR). The data set is classed as cell-based, Bovine Rotavirus. To be noted: for SI (selectivity index), BRV: CC50/IC50; for IC50: Rotavirus A, 96 h, MDBK cells, 200 TCID50/well BRV, after 4 days, read-out: BRV infection inhibition concentration IC50. The procedure:
The next day, BRV of 200 TCID50/well and inosine, xanthosine and guanosine in the dialdehyde and acyclic diol forms were treated to the cells simultaneously, and after 4 days, using commercialized Viral gene (DNA/RNA) extraction kit (iNtRON, 101410754), RNA was isolated.
For the isolated RNA, using BRV-specific primers (F-[…] , R-[…] ) and realtime RT-qPCR experimental method (95° C., 10 minutes 1 cycle, 95° C., 15 seconds, 60° C., 15 seconds, 72° C., 20 seconds 40 cycles), the antiviral efficacy of the materials was confirmed.

A further data set relates to CPV. Nature of the data set: CPV infection inhibition in MDCK cells (qPCR). The conditions noted are these: for SI (selectivity index), CPV: CC50/IC50; for IC50: 96 h, MDCK cells, 200 TCID50/well CPV, after 4 days, read-out: CPV infection inhibition concentration IC50 (Table 10). It is filed as cell-based, Canine Parvovirus. The procedure:
For the isolated DNA, using CPV-specific primers (F-[…] , R-[…] ) and realtime RT-qPCR experimental method (95° C., 5 minutes 1 cycle, 95° C., 10 seconds, 60° C., 30 seconds, 40 cycles), the antiviral efficacy of the materials was confirmed.

The next data set has as its system Vero cell line. To be noted: monkey.
A further data set can be described thus: in vitro. To be noted: monkey.
The nature of data set [4]: Cytotoxicity, PK15 cell test. To be noted: pig, PK15 cells.
Data set [5] is described as follows: Cytotoxicity, MDCK cell tests. To be noted: dog, MDCK cells.
A further data set concerns MDCK cell line. Nature of the data set: Cytotoxicity, MDCK cell tests. To be noted: read-out: CC50 (Table 10, CPV); cytotoxicity.
A short description of data set [6]: Cytotoxicity, MDBK cell tests. To be noted: bovine, MDBK cells.
In the next data set the test system is MDBK cell line. Nature of the data set: Cytotoxicity, MDBK cell tests. To be noted: read-out: CC50 (Table 9, BRV); cytotoxicity.
A short description of data set [7]: Cytotoxicity (WST-1 / DAPI staining), PRRSV test cells. To be noted: monkey, Marc-145 cells (monkey kidney). For orientation: Tetrazolium dyes change colour on reduction, which living cells bring about.
Where [8] appears, read: avian paramyxovirus 1, Vero, 72 h.

With `O=C[C@@H](CO)O[C@H](C=O)n1cnc2c(=O)[nH]cnc21` [Dialdehyde-inosine, dialdehyde form of inosine], the “SI (selectivity index), PRRSV” value in [1] is given as >105.3. For the same molecule, the IC50 amounted to 95 µM in data set [1]; 0.448 mM in data set [2]; 817 µM in the data set with PCV2; 0.0966 mM with PRV; 0.554 mM in [3]; 76.4 µM in the data set with IBV (Avian coronavirus, Vero, 96 h). Besides, the IC50 is 0.469 mM with NDV (setting [8]); 110 µM in the data set with BVDV (Bovine viral diarrhea virus isolates and strains, 96 h, MDBK cells, 200 TCID50/well BVDV, after 4 days, read-out: BVDV infection inhibition concentration IC50); 0.107 mM with BRV; 1.69 mM with CPV (Canine parvovirus). For the same molecule, in data set [2], the “SI (selectivity index), PEDV” value is given as >22.3. Further, in the data set with PCV2, the “SI (selectivity index), PCV2” value is listed as >12.2. Further, the “SI (selectivity index), PRV” value with PRV is listed as >103.5. Also, in [3], the “SI (selectivity index), SIV” value was >18.1. The “SI (selectivity index), IBV” value in the data set with IBV was >130. Further, the “SI (selectivity index), NDV” value in the data set with NDV was >21.3. Besides, in the data set with BVDV (CC50/IC50), the “SI (selectivity index), BVDV” value was >90.8. In addition, the “SI (selectivity index), BRV” value with BRV was >93.8. Moreover, the “SI (selectivity index), CPV” value in the data set on CPV is on record as >5.9. For the same molecule, the CC50 (with Vero cell line; in “in vitro”; in data set [4]; in [5]; in the data set with MDCK cell line; in data set [6]) was > 10 mM throughout. In addition, the CC50 (in the data set on MDBK cell line; in data set [7]) was > 10 mM in each case.

For the molecule “dialdehyde form of inosine [Dialdehyde-inosine]”, the IC50 was 76.4 µM in the data set on IBV (Vero cells, 200 TCID50/well IBV, after 4 days) and 0.469 mM in the data set with NDV (Vero cells, 200 TCID50/well NDV, after 3 days).

For orientation: inhibition means how much of the control response was suppressed. Consider `Nc1nc2c(ncn2[C@@H](CO)OC(CO)CO)c(=O)[nH]1` [Acyclic diol-guanosine, acyclic diol form of guanosine], for which, in data set [1], the “SI (selectivity index), PRRSV” value was >17.5. The IC50 in data set [1] amounted to 458 µM; in data set [2] it was 1.78 mM; in the data set on PCV2, 2330 µM; in the data set with PRV, 3.4 mM; in data set [3] it was 4.82 mM; in the data set with IBV (Avian coronavirus, Vero, 96 h) it was 1780 µM. Besides, the IC50 with NDV (setting [8]) worked out at 6.71 mM; in the data set with BRV, 1.76 mM. In addition, the “SI (selectivity index), PEDV” value in data set [2] is listed as >5.6. Moreover, the “SI (selectivity index), PCV2” value in the data set with PCV2 is reported as >4.3. The “SI (selectivity index), PRV” value in the data set on PRV is recorded as >2.9. Further, in data set [3], the “SI (selectivity index), SIV” value is reported as >2.1. Further, in the data set on IBV, the “SI (selectivity index), IBV” value was >5.6. Further, the “SI (selectivity index), NDV” value with NDV was >1.5. Moreover, in the data set on BRV, the “SI (selectivity index), BRV” value is given as >5.7. In addition, the inhibition at 8000 µM in the data set with CPV (Canine parvovirus, MDCK, at 8000 μM, read-out: CPV infection inhibition efficacy) came out at 18%. Moreover, the “CPV virus titer reduction efficacy” value in the data set on CPV (at 8000 μM) is recorded as ≥ 1 log10. Moreover, the CC50 in the data set with Vero cell line is > 10 mM; in “in vitro”, > 10 mM; in data set [4] it was > 10 mM; in data set [5], > 10 mM; in data set [6], > 10 mM; in data set [7] it was > 8 mM.

For `O=c1[nH]c(=O)c2ncn([C@@H](CO)OC(CO)CO)c2[nH]1` [Acyclic diol-xanthosine, acyclic diol form of xanthosine], in data set [1], the “SI (selectivity index), PRRSV” value is recorded as >20. Besides, the IC50 is 400 µM in data set [1]; 2.3 mM in data set [2]; 995 µM with PCV2; 3.42 mM in the data set on PRV; 6.69 mM in [3]; 1.56 mM in the data set with BRV. Further, in the data set on CPV (Canine parvovirus), the IC50 worked out at 2.2 mM. The “SI (selectivity index), PEDV” value in data set [2] is listed as >4.4. The “SI (selectivity index), PCV2” value in the data set on PCV2 is >10.1. Further, the “SI (selectivity index), PRV” value in the data set with PRV is reported as >2.9. Further, the “SI (selectivity index), SIV” value in data set [3] is >1.5. Also, in the data set on NDV (avian paramyxovirus 1, Vero, read-out: NDV infection inhibition efficacy), the inhibition at 8000 µM stood at 39.4%. Moreover, the “SI (selectivity index), BRV” value with BRV was >6.4. In the data set with CPV, the “SI (selectivity index), CPV” value was >4.6. The CC50 (in the data set on Vero cell line; in the data set “in vitro”; in data set [4]; in data set [5]; in the data set on MDCK cell line; in [6]) was > 10 mM throughout. In addition, the CC50 in data set [7] is > 8 mM.

For the molecule `O=c1[nH]cnc2c1ncn2[C@@H](CO)OC(CO)CO` [Acyclic diol-inosine, acyclic diol form of inosine], the “SI (selectivity index), PRRSV” value in data set [1] is listed as >17.6. Further, the IC50 was determined as 454 µM in [1]; 2.77 mM in data set [2]; 776 µM with PCV2; 2.83 mM in the data set on PRV; 6.19 mM in data set [3]; 2660 µM in the data set on IBV (Avian coronavirus, Vero, 96 h). In addition, the IC50 in the data set on NDV (setting [8]) amounted to 4.44 mM; with BRV it was 1.93 mM; with CPV (Canine parvovirus), 2.19 mM. Also, the “SI (selectivity index), PEDV” value in data set [2] is >3.6. Also, the “SI (selectivity index), PCV2” value with PCV2 was >12.9. Moreover, in the data set with PRV, the “SI (selectivity index), PRV” value is recorded as >3.5. Further, in [3], the “SI (selectivity index), SIV” value is >1.6. The “SI (selectivity index), IBV” value in the data set on IBV is on record as >3.8. Further, the “SI (selectivity index), NDV” value with NDV is listed as >2.3. Besides, the “SI (selectivity index), BRV” value in the data set with BRV was >5.2. In the data set on CPV, the “SI (selectivity index), CPV” value is >4.6. The CC50 (in the data set on Vero cell line; in the data set “in vitro”; in [4]; in data set [5]; in the data set on MDCK cell line; in [6]) was > 10 mM throughout. Further, in data set [7], the CC50 is > 8 mM.

For the origin of these results see patent US20250057849A1, “ANTIVIRAL COMPOSITION COMPRISING NUCLEOSIDE ANALOGUES DERIVED FROM NUCLEIC ACID AND PHARMACEUTICALLY ACCEPTABLE SALT THEREOF” (CJ CheilJedang Corporation, priority 2021, published 2025).
